Data reported in patent publication US20210113563A1, “4-(4-CYANO-2-THIOARYL)DIHYDROPYRIMIDINONES FOR TREATING CHRONIC WOUNDS” (pH Pharma Co., Ltd., priority 2015, published 2021).

Test system: collagen type I and collagen type III in ulcer tissue
Assay: Collagen type I and III in lesions of pressure-applied mouse skin, Sirius red staining
Format: in vivo
Conditions: for Collagen type I / Collagen type III: pressure-applied mouse skin, day 3 to 15, Sirius red
Source text: OBJECTIVE: Pressure ulcers (decubitus ulcers) represents a large subgroup of chronic wounds. They mainly affect aged or neurologically immobilized patients. Continuous pressure at discrete skin areas leads to long-lasting hard-to-heal ulcer wounds that are also characterized by neutrophil infiltration. The presented experiment was set up to mimic this condition by applying magnet-induced pressure onto mouse skin folds. Since the area of emerging wounds is variable in form and size, its usability as a readout parameter is technically limited.
METHODS: Magnet placement leads to wounds with dermal neutrophil infiltration and delayed wound healing. Three ischemia-reperfusion (IR) cycles (12 hours on, 12 hours off) were applied in each animal to initiate decubitus ulcer formation.
On day 0 (start of experiment), the mice were weighed and put in anesthesia using an isoflurane/O2/N2O mixture. Back and flank skin was shaven. Skin was moistened with tap water and depilated using Pilca cream. Skin was lifted at the back midline and one magnet was placed on each side of the skin fold so that they were exactly opposite to each other. The magnets were left in place for 12 hours, then taken off for 12 hours. This cycle was repeated three times in total.
After sacrificing (day 15) wounds were excised using a 10 mm punch scalpel.
To assess the content of collagen type I (mature form) and collagen type III (newly formed) in ulcer tissue, Sirius red staining was performed according to standard protocols.

In the case of `CC1=C(C#N)[C@@H](c2ccc(C#N)cc2S(C)(=O)=O)N(C)C(=O)N1c1cccc(C(F)(F)F)c1` [Example 5, (4 S)-4-[4-Cyano-2-(methylsulfonyl)phenyl]-3,6-dimethyl-2-oxo-1-[3-(trifluoromethyl)phenyl]-1,2,3,4-tetrahydropyrimidine-5-carbonitrile], the “Collagen type III in pressure-induced lesions (in words)” value (mice, after 12 days of treatment) is reported as “significant increase of collagen type III”, the “Collagen type I” value (1 mg/kg BW o.d.) is reported as 1.1 and the “Collagen type III” value (1 mg/kg BW o.d.) is reported as 30.2. The “Collagen type I” value (10 mg/kg BW o.d.) was 0.7 and the “Collagen type III” value (10 mg/kg BW o.d.) was 49.8.
